Laboratory results published in patent publication US6835382B2, “Ii peptide therapeutics to enhance antigen presentation” (University of Massachusetts, priority 1996, dated 2004).
Blank lines part the entries; values can stand above or below the substance they belong to. Positions of bridges follow the written chain, without caps; N, C: chain ends. Non-standard residues stand in square brackets, D forms with d. No end group written: not given here. hArg = N=C(N)NCCCC[C@H](N)C(=O)O; Cit = NC(=O)NCCC[C@H](N)C(=O)O

Experiments:
[1] = test system: murine E^k MHC class II allele; test: antigenic peptide prepulse assay, E^k allele (fixed APC prepulsed with PGCC81-104); type: cell-based; conditions: AE peptide 64 μM; for Activity in antigenic peptide prepulse assay, E^k (baseline = 1.00): Table 25, prepulse 2.5 μM antigenic peptide, supernatant 1:10; for Activity in antigenic peptide prepulse assay, E^k (baseline = 1.0): prepulse 1.25 μM antigenic peptide
Description: In a second type of assay, the “peptide prepulse assay”, the antigenic peptide is incubated with paraformaldehyde-fixed APC for 6 h. The APC are washed and incubated for 24 h with the AE101 series homolog and the T cell hybridoma specific for the antigenic peptide. After that incubation, an aliquot of the culture supernatant is transferred to a second culture to measure the relative degree of T hybridoma stimulation, as reflected in the effect of released interleukins on the growth of an interleukin-dependent, indicator cell line, as described above.
The two above described assays measure different aspects of the molecular mechanism of the AE101 series of peptides. In the “simultaneous assay”, AE101 series peptides are thought to induce the release of endogenously bound peptides and to permit the binding of the second, specific antigenic peptide which is relatively abundant in the culture fluid. The AE101 series peptides enhance antigenic peptide-specific T cell responses in simultaneous assays. In the “peptide prepulse” assay, the specific antigenic peptide becomes bound to MHC class II molecules on the surface of the fixed APC during the 6 h prepulse incubation. The effect of the AE101 series homologs is then thought to release that antigenic peptide, resulting in an apparent suppression of the immune response.
The AE101 series peptides are thought to contact the MHC class II molecules at a discrete site outside the antigenic peptide-binding groove. AE101 peptide binding to this “Ii-KEY” site is thought to induce a conformational change in the MHC class II molecules accelerating the dissociation of previously bound antigenic peptide. […] The AE101 series peptides thus inhibit antigenic peptide-specific T cell responses in the “peptide prepulse” assays.
Antigenic peptide-specific T cell activation was measured by the following procedure. Mitomycin C-treated A20 cells (A^dE^d) or CH27 cells APC (A^kE^k) were generated by incubating 5×10^6 cells/mL for 20 min at 37° C. with 0.025 mg/mL of mitomycin C (Sigma) in Dulbecco's Modified Eaglel's Medium (DMEM)/10 mM N-2(hydroxyethylpiperazine-N″[2-ethanesulfonic acid] (HEPES), followed by two washes with four volumes of DMEM-5% fetal calf serum (FCS), 10 mM HEPES. Fixed APC were generated by treating 1×10^6 cells/mL for 5 min with 0.5% paraformaldehyde in PBS (pH 7.2), followed by two washes with four volumes of DMEM-10% FCS, 10 mM HEPES. T cell hybridomas were irradiated 2200 rads before each assay.
The “peptide prepulse assay” was carried out under essentially the same conditions as described for the “simultaneous assay” with the following modifications. Fixed APC were first incubated for 6 h at 1×10^6 cells/mL in complete DMEM-5% FCS in 24-well microculture plates (1 mL/well) with antigenic peptide, followed by four washes with 10 volumes of DMEM-5% FCS. The cells were then exposed to varying concentrations of AE101 series peptide (64 μM, 16 μM, 4 μM, and 1 μM) for 24 h in the presence of the T cell hybridoma specific to the antigenic peptide. Interleukin release from these cultures was measured by proliferation of HT-2 cells to interleukins in supernatants transferred from the primary culture. Generally, a single dose of 64 μM of each AE101 series peptide was used. The baseline T cell response was measured by culturing T hybridoma cells with the antigenic peptide-prepulsed APC in the absence of AE101 series peptides.
Table 19: Activities of C-terminal truncation analogs of AE101 in an antigenic peptide prepulse assay. […] Paraformaldehyde-treated APC (fixed APC) expressing MHC class II molecules were incubated with antigenic peptide for 6 h (HEL106-116 for E^d and PGCC81-104 for E^k). After this incubation, the prepulsed APC were washed and cultured with T hybridoma cells and AE101 series peptides. The antigenic peptide concentration during the prepulse was 12 μM for Ed and 20 μM for E^k. The AE101 series peptide concentrations were 64 μM for E^d and 16 μM for E^k. […]

[2] = target: T1, murine E^d MHC class II allele (Mus musculus, UniProt P01904+P01915); test: AE101 series peptide prepulse assay, E^d allele; type: cell-based; conditions: for T cell response relative to baseline with PBS-pretreated APC (NONE = 1.0), E^d: Table 35, AE101 series peptide prepulse 64 μM, antigenic peptide 0.3 μM, supernatant dilution 1:4
T1 sequence (P01904 26-255): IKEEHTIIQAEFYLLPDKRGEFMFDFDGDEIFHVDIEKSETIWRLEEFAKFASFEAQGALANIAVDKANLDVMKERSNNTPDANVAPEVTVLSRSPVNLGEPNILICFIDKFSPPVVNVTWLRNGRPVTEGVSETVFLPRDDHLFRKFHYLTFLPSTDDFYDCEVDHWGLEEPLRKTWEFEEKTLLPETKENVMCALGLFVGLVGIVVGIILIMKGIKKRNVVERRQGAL
T1 sequence (P01915 27-264 limits assumed): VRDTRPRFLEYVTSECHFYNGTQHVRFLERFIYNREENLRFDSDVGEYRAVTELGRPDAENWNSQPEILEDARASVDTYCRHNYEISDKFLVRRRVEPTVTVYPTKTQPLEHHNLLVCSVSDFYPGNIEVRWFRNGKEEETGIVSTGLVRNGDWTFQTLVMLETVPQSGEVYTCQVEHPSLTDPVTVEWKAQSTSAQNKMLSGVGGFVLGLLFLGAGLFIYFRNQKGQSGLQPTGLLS
Description: (§1) Table 35: Activities of multiple substitution analogs of AE235, targeting the E^k and E^d allele, in an AE101 series peptide prepulse assay. In this assay the concentration of AE101 series peptides used during the prepulse was 64 μM. The concentrations of antigenic peptides were 0.3 μM for Ed and 0.4 μM for E^k. The supernatant dilutions taken into the HT-2 cell assay was 1:4 for E and 1:2 for E^k. The AE381 peptide is a head-to-tail cyclization: the amino terminal amino group is coupled through an amide linkage to the carboxyl terminal group. The AE 382 peptide is a side-to-tail cyclization: the epsilon amino group of Lys^4 is coupled through an amide linkage to the carboxyl terminal group.
(§2) AE101 series peptide prepulse assays were carried out in the E^d and E^k systems as described for simultaneous competition assays with the following modifications. Fixed APC were first incubated for 6 h at 1×10^6DMEM-5% FCS with 64 μM of each AE101 series peptide or with PBS. The APC were then washed four times with ten volumes of DMEM-5% FCS, and were cocultured with T hybridoma cells and the indicated submaximal doses of antigenic peptides used in the simultaneous competition assays. The baseline T cell response was measured by culturing T hybridoma cells with antigenic peptide and PBS-pretreated APC.

[3] = test system: murine E^k MHC class II allele; test: AE101 series peptide prepulse assay, E^k allele; type: cell-based; conditions: Table 35; AE101 series peptide prepulse 64 μM; antigenic peptide 0.4 μM; supernatant dilution 1:2
Description: as §1, §2

HLA-DR1 molecules [4] = test: release of biotin-labeled hMBP(90-102) from HLA-DR1 without unlabeled antigenic peptide (assay I); type: binding, human; conditions: Table 37, no unlabeled hMBP(90-102)
HLA-DR1 molecules [5] = test: exchange of biotinylated hMBP(90-102) into antigenic peptide-loaded HLA-DR1 (assay III); type: binding, human; conditions: Table 38; HLA-DR1 preloaded with unlabeled hMBP(90-102) 50 μM; exchange with biotin-labeled hMBP(90-102) 50 μM, 37° C., 1 h; fraction of positive control o.d.; no enhancement = 0.08

Substance: Ac-A[Cit]NKNPK-NH2 [AE351]
Activity in antigenic peptide prepulse assay, E^k (baseline = 1.00) [1]: 0.90

Substance: Ac-FK HArg MYP Cit-NH2 [AE371]
Activity in antigenic peptide prepulse assay, E^k (baseline = 1.0) ([1]; Table 26, supernatant 1:8): 0.99

Substance: Ac-LK HArg KYPK-NH2 [AE363]
Activity in antigenic peptide prepulse assay, E^k (baseline = 1.0) ([1]; Table 26, supernatant 1:8): 0.97

Substance: Ac-LKMKYPK-NH2 [AE362]
Activity in antigenic peptide prepulse assay, E^k (baseline = 1.0) ([1]; Table 26, supernatant 1:8): 0.91

T cell response relative to baseline with PBS-pretreated APC (NONE = 1.0), E^d [2]: 7.5
Substance: Ac-LR HArg KYP Cit-NH2 [AE366]
Activity in antigenic peptide prepulse assay, E^k (baseline = 1.0) ([1]; Table 26, supernatant 1:8): 0.94
T cell response relative to baseline with PBS-pretreated APC (NONE = 1.0), E^k [3]: 3.5

Substance: Ac-LR HArg MYPK-NH2 [AE365]
Activity in antigenic peptide prepulse assay, E^k (baseline = 1.0) ([1]; Table 26, supernatant 1:8): 0.42

Substance: Ac-LR Orn K HArg PK-NH2 [AE340]
Activity in antigenic peptide prepulse assay, E^k (baseline = 1.00) [1]: 0.83

Substance: Ac-LRLKYPN-NH2 [AE368]
Activity in antigenic peptide prepulse assay, E^k (baseline = 1.0) ([1]; Table 26, supernatant 1:8): 0.92

T cell response relative to baseline with PBS-pretreated APC (NONE = 1.0), E^d [2]: 1.7
Substance: Ac-LRMKLPK (lactam 4-C) [AE382]
Activity in antigenic peptide prepulse assay, E^k (baseline = 1.0) ([1]; Table 28, supernatant 1:4): 0.70
T cell response relative to baseline with PBS-pretreated APC (NONE = 1.0), E^k [3]: 3.2

Substance: Ac-LRMKNPF-NH2 [AE350]
Activity in antigenic peptide prepulse assay, E^k (baseline = 1.00) [1]: 0.86

Substance: Ac-LRMKYPN-NH2 [AE370]
Activity in antigenic peptide prepulse assay, E^k (baseline = 1.0) ([1]; Table 26, supernatant 1:8): 0.58

Substance: Ac-LRMKYP[Cit]-NH2 [AE364]
Activity in antigenic peptide prepulse assay, E^k (baseline = 1.0) ([1]; Table 26, supernatant 1:8): 0.93

Substance: Ac-LRMMYP[Cit]-NH2 [AE367]
Activity in antigenic peptide prepulse assay, E^k (baseline = 1.0) ([1]; Table 26, supernatant 1:8): 0.99

Substance: Ac-L[hArg]LKYPK-NH2 [AE361]
Activity in antigenic peptide prepulse assay, E^k (baseline = 1.0) ([1]; Table 26, supernatant 1:8): 1.00

Substance: Ac-L[hArg]MKYPK-NH2 [AE360]
Activity in antigenic peptide prepulse assay, E^k (baseline = 1.0) ([1]; Table 26, supernatant 1:8): 0.94

Substance: cyclic LRMKLPK (bridge (positions not given here); also: cyclic, ring type not given here) [AE381, “head-to-tail” cyclization from the amino-terminus to the carboxyl-terminus of AE114]
Activity in antigenic peptide prepulse assay, E^k (baseline = 1.0) ([1]; Table 28, supernatant 1:4): 0.28
T cell response relative to baseline with PBS-pretreated APC (NONE = 1.0), E^d [2]: 1.0
activity in the AE101 series peptide prepulse assay, in words ([2]; text on Table 35, AE peptide prepulse 64 μM, E^d and E^k systems): potent suppressive activity
T cell response relative to baseline with PBS-pretreated APC (NONE = 1.0), E^k [3]: 0.3
Relative Release, Without unlabeled hMBP(90-102), 1 μM (HLA-DR1 molecules [4]; AE101 series compound 1 μM): 0.64
Relative Release, Without unlabeled hMBP(90-102), 64 μM (HLA-DR1 molecules [4]; AE101 series compound 64 μM): 0.5
Relative Binding (HLA-DR1 molecules [5]): −0.12
